# Test results published in patent US20190117770A1, “USES OF IMMUNOCONJUGATES TARGETING CD138” (Biotest AG, priority 2011, published 2019).
# “And” between values parts separate entries of the source, which are not always exact repeats. Equal values may be shown once. “Also recorded” adds a separate entry of the source.
# How the values were obtained:
# [1] = system: relapsed/refractory multiple myeloma; assay: Human trial, repeated multiple dose regimen (days 1, 8, 15)
# Description: This includes, e.g., in alternating 2 and 3 day intervals, in 4 day intervals, in progressive increasing intervals such as on day 1, 3, 6, 10, 15. […] Such a treatment cycle, including a resting period, is also referred to herein as “full” or “complete” treatment cycle. A treatment free period describes the time during which no treatment is given. Thus, in the above example, the treatment free period would start at day 16. At the beginning of the resting period, no immunoconjugate is administered to the patient.
# Generally, all toxicities of at least grade 3 are defined as DLT. Further study specific DLT criteria which can be employed are listed below: Nonhematological: • Alopecia, of any grade, is not considered a DLT • Grade 3-4 nausea and vomiting lasting longer than 3 days despite optimal antiemetic medication.^a • Grade 3-4 diarrhea lasting longer than 3 days despite optimal antidiarrheal medication.^a a. Optimal antidiarrheal and antiemetic treatment were determined by each investigator.
# These DLTs may occur in a first or a subsequent treatment cycle. […] Preferably DLTs in the first cycle are considered.
# Initially, the response to treatment was evaluated at day 1 of treatment cycles 1-3 by M-protein quantification using immunoelectrophoresis (IEP) and immunofixation electrophoresis (IFE) from serum and 24-hour urine collection. […] A general quantitative immunoglobulin assessment was done together with M-protein quantification.
# Serum samples were used to perform FLC assays to examine multiple myeloma subjects with no detectable M-protein (nonsecretory/oligosecretory myeloma) and to allow for detection of early response to treatment. Therefore serum FLC assays were performed on day 1, 2, 3, and 8 of treatment cycle 1, on day 2, 3, 8 and 15 of cycle 4, as well as on day 1, 8 and 15 of all other treatment cycles. M-protein and FLC were be analyzed at the screening and at the close-out visit. Evaluations at day 1 of cycle 1 served as baseline values.
# [2] = Half life in human plasma ex vivo; type: in vitro ADME
substance,measurement,setting,value
BT062,DLTs,"[1]; 40 mg/m^2 weekly, 14 administrations",no DLTs
same,response,"[1]; 80 mg/m^2 weekly, Patient 12",partial response
same,progression free survival,"[1]; 100 mg/m^2 weekly, patient 15 (FIG. 23)",more than 3 months
same,response,"[1]; 120 mg/m^2 weekly, patient 19 (FIG. 24)",unconfirmed minor response
same,patients displaying DLT,[1]; 140 mg/m^2 weekly,1 out of 6
same,patients displaying DLTs,[1]; 160 mg/m^2 weekly,two out of the four and 2 out of 4
same,response,"[1]; 160 mg/m^2 weekly, patient 31",minor response
same,M-protein decrease,"[1]; 160 mg/m^2 weekly, patient 31 (FIG. 25)",more than 25%
same,disease status,"[1]; 3 × 50 mg/m^2, over six cycles (Patient 6)",no disease progression; also recorded: At least stable disease could be achieved
same,serum FLC level,"[1]; 3 × 65 mg/m^2, after a single treatment cycle (FIG. 21)",A strong decrease of the serum FLC level
same,Tolerability,"[1]; 3 × 80 mg/m^2, aggregate 240 mg/m^2 in three weeks",well tolerated
same,reduction of urine M protein,"[1]; 3 × 120 mg/m^2, after 3rd, 7th and 10th cycle","50% achieved after 3rd, 7th and 10th cycle"
same,patients with progression free survival of at least 168 days,[1]; FIG. 18,four
same,patients with progression free survival of at least 300 days,[1]; FIG. 18,two
same,treatment without disease progression,[1]; Patient 8 (FIG. 21),168 days
same,patients (out of 32) with progression free survival of at least 3 months,[1]; all dose levels (FIG. 18),14
same,"DLT (palmar-plantar erythrodysaethesia syndrome), patients","[1]; at 420 (3 × 140 mg/m^2), out of six","toxicities (up to now), one"
same,MAD,"[1]; days 1, 8, 15",160 mg/m^2
same,DLTs,[1]; three 21 day cycles of 3×100 mg/m^2,No DLTs
same,DLTs,[1]; three 21 day cycles of 3×120 mg/m^2,No DLTs
same,plasma half life,[2],14 days
